The values below come from patent publication US20140378472A1, “AMORPHOUS VILAZODONE HYDROCHLORIDE, A PROCESS FOR ITS PREPARATION AND PHARMACEUTICAL COMPOSITIONS THEREOF” (RANBAXY LABORATORIES LIMITED, priority 2011, published 2014).

This series in a line: storage stability of the amorphous form, followed by XRPD. Particulars: storage at 25° C. and 52% relative humidity (RH) for 24 days; XRPD pattern similar to FIG. 5 (sample of Example 3). The series is classed as physicochemical. The method, then: XRPD of the samples were determined by using a Panalytical X'Pert Pro X-Ray Powder Diffractometer in the range 3-40 degree 2 theta and under a tube voltage and current of 45 Kv and 40 mA, respectively. Copper radiation of wavelength 1.54 angstrom and Xceletor detector was used.

In the case of `Cl.N#Cc1ccc2[nH]cc(CCCCN3CCN(c4ccc5oc(C(N)=O)cc5c4)CC3)c2c1` [amorphous vilazodone hydrochloride, 5-{4-[4-(5-cyano-1H-indo1-3-yl)butyl]piperazin-1-yl}-1-benzofuran-2-carboxamide hydrochloride], the “polymorphic stability on storage (XRPD)” value was “stable and does not convert to any other polymorphic form”.
